Reference: patent publication US12673057B2, “RIPK2 inhibition for the treatment of cancer” (CEDARS-SINAI MEDICAL CENTER, priority 2020, dated 2026)
Entries after “also recorded” stand apart in the source; their conditions may differ. Read-outs that look alike come from different tables or passages of the source. Residues, ends and D or L forms follow the SMILES beside them. *: point of attachment. Cbz = O=C(OCc1ccccc1)*

Key:
[1] = system: PC3 cells; experiment: 3D spheroid invasion assay; conditions: 10 μM, 3D culture
[2] = system: RIPK2; experiment: Cell-based MKK7 phosphorylation immunoblot, surrogate for RIPK2 activity, RIPK2-KO HEK293T cells; set-up: species or system human; conditions: 10 μM, 2 h, 10% fetal bovine serum
[3] = system: 22Rv1 cells
Procedure: Experimental metastasis model: For In vivo metastasis assays, pBMN (CMV-copGFP-Luc2-Puro) (Addgene) was stably transfected into control and RIPK2-KO 22Rv1 cells. Two weeks later, luciferase-expressing cells were sorted with a FACSAria III (BD Biosciences) using the same gate for GFP. […] To each male SCID/Beige mouse (7-week-old; Charles River), 100 μL of 1×10^7 cells/mL in DPBS was intracardially injected into the left cardiac ventricle. Each week, 150 μL of 30 mg/mL D-luciferin was intraperitoneally injected into each mouse, followed by measuring tumor metastasis with an IVIS Spectrum In Vivo Imaging System (PerkinElmer). Luciferase activity was quantified by the Living Image software (Caliper Life Sciences, v4.3.1).
Established metastasis model: For drug treatment, to each male SCID/Beige mouse (8-week-old; Charles River), 100 μL of 2.5×10^6 cells/mL in DPBS was intracardially injected. […] Two more mice were assigned to drug treatment groups in preparation for possible drug toxicity deaths, compared with the control group. Mice were daily administered by oral gavage (po qd) with a drug or vehicle control for 28 days. GSK583 was administered at 10 mg/kg po qd. […] Metastases were visualized by bioluminescence imaging every week as described above. At the end of the experiments, mice were sacrificed by standard necropsy, and tumors were harvested and subjected to histopathology analyses.
In the clinical scenario, patients with nmCRPC have no detectable metastases by conventional radiographic imaging. […] To investigate whether pharmacological inhibition of RIPK2 can suppress PC metastasis in a setting that mimics the clinical scenario, we injected the aforementioned luciferase-tagged control 22Rv1 cells intracardially into male SCID/Beige mice, and waited for 9 days to allow for the formation of early metastatic lesions, prior to drug treatment (FIG. 22G). To determine whether GSK583 impairs metastatic outgrowth, we randomized the mice into two groups (FIG. 31A), followed by treatment with vehicle control or GSK583 (10 mg/kg) administered by oral gavage every day (po qd).

[4] = system: MYC mRNA; experiment: MYC mRNA abundance by quantitative RT-PCR; type: cell-based; conditions: different doses and time
Source text: Total RNA was extracted from cells using the TRIZOL (Invitrogen). Messenger RNA was converted to the first-strand cDNA using iScript cDNA synthesis kit (Bio-Rad), followed by RT-PCR reaction using SYBR Green PCR Master Kit in QuantStudio 5 Systems (Applied Biosystems). Gene expression was normalized to GAPDH using the comparative CT method. To determine how RIPK2 upregulates the c-Myc protein, we first examined whether RIPK2 regulates the transcription of the MYC gene. […] Thus, the regulation of c-Myc protein abundance by RIPK2 is mainly via a post-transcriptional mechanism.

[5] = mouse, in vivo, po, 30 mg/kg
[6] = system: PC3, DU145, and 22Rv1 cells; experiment: Clonogenic assay (anchorage-dependent colony formation); type: cell-based, human
Procedure: Two milliliters of PC3 (250/mL), DU145 (250/mL), or 22Rv1 (1,000/mL) cells were seeded in 6-well plates and cultured in 10% FBS-containing media, which were replaced every 2-3 days. After 10-14 days, cells were fixed in 4% paraformaldehyde for 15 min and rinsed with DPBS for three times. Cells were stained with 120 μg/mL crystal violet solution. Cell colonies were quantified under an All-in-one microscope (Keyence) as described in the migration assay.

[7] = system: RIPK2/MKK7(/JNK)/c-Myc signaling; experiment: Immunoblot of endogenous p-JNK, p-c-Myc-S62 and c-Myc in parental PC cells; type: cell-based, human; conditions: 10 μM GSK583 or 5 μM Ponatinib, 2 h
[8] = system: PC3, DU145, and 22Rv1 cells; experiment: Soft agar assay (anchorage-independent colony formation); type: cell-based, human; conditions: 10 μM
Procedure: Soft agar assay was performed essentially as described (Borowicz et al., 2014). Briefly, 1.5 mL of 0.5% Nobel agar solution was plated in each well of 6-well plates as the bottom layer. 1.5 mL of 6.67×10^3/mL (for PC3 and DU145) or 1.33×10^4/mL (for 22Rv1) cells in 0.3% noble agar solution were plated in 6-well plates as the top layer. […] The medium was replaced every 2-3 days. After 2-3 weeks, cell colonies were stained with 0.1% crystal violet solution for 20 minutes and washed with deionized water for five times. Cell colonies were quantified under an All-in-one microscope (Keyence) as described in the migration assay.

[9] = system: JNK; experiment: RIPK2-induced c-Jun phosphorylation (surrogate for JNK activity) in RIPK2/MKK7-DKO HEK293T cells; type: cell-based, human; conditions: 1 μM, 2-h treatment
Procedure: (A) Representative immunoblots of the indicated proteins in total lysates of HEK293T cells with RIPK2- and MKK7-double knockout, which were transiently co-transfected with 0.5 μg MYC, 0.5 μg RIPK2m4, and 0.1 μg MAP2K7 or vector plasmids and then treated with vehicle control, MKK7-COV-3 (25 μM), or JNK-IN-8 (1 μM) in 10% FBS-containing medium for 2 h. (B) Representative images (upper) and quantification (lower) of PLA detecting the association of endogenous MKK7 and c-Myc in HEK293T cells (n=4 per group). (C) Representative images of immunofluorescence colocalization of MKK7 and c-Myc in RIPK2/MKK7-DKO HEK293T cells, which were transiently co-transfected with RIPK2m4, MKK7-His, and MYC plasmids. (D) Representative immunoblots of the indicated proteins after in vitro kinase reactions. (E) Representative immunoblots of the indicated proteins in total lysates of RIPK2/MKK7-DKO HEK293T cells, which were transiently transfected with the indicated forms of MKK7 plasmids or vector control. […] (G) Representative images (upper) and quantification (lower) of PLA detecting the MKK7-c-Myc complex in RIPK2-KO HEK293T cells, which were transiently transfected with MYC and RIPK2m4 or vector control (n=5 per group). […]

[10] = system: c-Myc-Ser62 phosphorylation; experiment: RIPK2-induced c-Myc-Ser62 phosphorylation immunoblot in RIPK2/MKK7-DKO HEK293T cells; type: cell-based, human
Procedure: (A) Representative immunoblots of the indicated proteins in total lysates of HEK293T cells with RIPK2- and MKK7-double knockout, which were transiently co-transfected with 0.5 μg MYC, 0.5 μg RIPK2m4, and 0.1 μg MAP2K7 or vector plasmids and then treated with vehicle control, MKK7-COV-3 (25 μM), or JNK-IN-8 (1 μM) in 10% FBS-containing medium for 2 h. (B) Representative images (upper) and quantification (lower) of PLA detecting the association of endogenous MKK7 and c-Myc in HEK293T cells (n=4 per group). (C) Representative images of immunofluorescence colocalization of MKK7 and c-Myc in RIPK2/MKK7-DKO HEK293T cells, which were transiently co-transfected with RIPK2m4, MKK7-His, and MYC plasmids. (D) Representative immunoblots of the indicated proteins after in vitro kinase reactions. (E) Representative immunoblots of the indicated proteins in total lysates of RIPK2/MKK7-DKO HEK293T cells, which were transiently transfected with the indicated forms of MKK7 plasmids or vector control. (F) Representative immunoblots of the indicated proteins in total lysates, cytoplasmic fraction, and nuclear fraction of RIPK2/MKK7-DKO HEK293T cells, which were transiently co-transfected with RIPK2m4, MYC, and MKK7 or vector control. (G) Representative images (upper) and quantification (lower) of PLA detecting the MKK7-c-Myc complex in RIPK2-KO HEK293T cells, which were transiently transfected with MYC and RIPK2m4 or vector control (n=5 per group). […] Data are Mean±SEM.
MKK7-COV-3, 25 μM; JNK-IN-8, 1 μM; 2-h treatment).

[11] = system: c-Myc protein; experiment: c-Myc protein degradation under cycloheximide treatment in PC3 cells; type: cell-based, human; conditions: in the presence of CHX treatment
Source text: In human cells, the c-Myc protein can be rapidly stabilized through Ser62 phosphorylation, which prevents the targeted degradation of c-Myc by the ubiquitin-proteasome system (Farrell and Sears, 2014). Therefore, we investigated whether RIPK2 phosphorylates and stabilizes the c-Myc protein. Ectopic overexpression of RIPK2 increased the abundance of phospho-c-Myc-Ser62 (p-c-Myc-Ser62) and total c-Myc in a dose-dependent fashion (FIG. 18L). […] Of note, RIPK2 is more frequently amplified or gained in mCRPC or overexpressed in primary PC than all known direct c-Myc-Ser62 kinases (FIG. 29). This raises a possibility that RIPK2 can more efficiently stabilize and activate c-Myc, and thus its overexpression is more favored by PC cells than the known direct c-Myc-Ser62 kinases. Collectively, RIPK2 stabilizes the c-Myc protein by phosphorylating its Ser62 residue and preventing it from proteasomal degradation, and RIPK2 is potentially a major stabilizer of the c-Myc protein in PC cells.

[12] = system: PC3 and 22Rv1 cells; experiment: PC cell viability; conditions: 1 μM, 10% FBS-containing medium
[13] = cited from earlier work

## CC(C)(C)S(=O)(=O)c1ccc2nccc(Nc3n[nH]c4ccc(F)cc34)c2c1 [GSK583]
[1]
  spheroid invasion of PC3 cells: significantly decreased; also recorded: significantly inhibited; also recorded: suppresses
[2]
  MKK7 phosphorylation levels (a surrogate for RIPK2 activity): substantially decreased
[3]; 10 mg/kg po qd
  PC liver metastasis in vivo: Inhibits
  prostate cancer (22Rv1) metastasis in mice: significantly decreased; also recorded: significantly suppressed; also recorded: significantly reduces; also recorded: Inhibits
[3]; 10 mg/kg po qd, week 4
  decrease of BLI intensities in the ventral-side mid-body (liver metastasis): 67%
  reduction of metastatic progression (total BLI intensities): 50%
[4]
  regulation of MYC mRNA abundance: ~10%
[5]
  toxicity to mice: toxic to mice
[6]; 10 μM, PC3, DU145, and 22Rv1
  anchorage-dependent colony formation: suppresses
[6]; Homo sapiens, read-out: inhibition of colony formation
  inhibition at 10 µM: ≥ 40%
[6]; low doses (≤1 μM), PC3, DU145, and 22Rv1
  inhibition of colony formation: not at low doses
[7]
  RIPK2/MKK7(/JNK)/c-Myc signaling: can inhibit
[8]
  anchorage-independent colony formation: suppresses

## Cc1cc(NC(=O)c2cccc(NC(=O)/C=C/CN(C)C)c2)ccc1Nc1nccc(-c2cccnc2)n1 [JNK-IN-8]
[9]
  RIPK2-induced c-Jun phosphorylation, a surrogate for JNK activity: completed abolished
[10]; 1 μM, 2-h treatment
  reduction of RIPK2-induced c-Myc-Ser62 phosphorylation: 16%
[10]; up to 25 μM
  inhibition of RIPK2-induced c-Myc-Ser62 phosphorylation at higher concentrations: could not enhance its inhibition

## CC(C)C[C@@H](C=O)NC(=O)[C@H](CC(C)C)NC(=O)[C@H](CC(C)C)NC(=O)OCc1ccccc1 [MG132] (Cbz-Leu-Leu-Leu-aldehyde)
[11]
  degradation of the c-Myc protein: degradation can be blocked

## C=CC(=O)Nc1cccc(-c2n[nH]c3cc(C)ccc23)c1 [MKK7-COV-3]
[10]; 25 μM, 2-h treatment
  decrease of RIPK2-induced c-Myc-Ser62 phosphorylation: 45%

## Cc1ccc(C(=O)Nc2ccc(CN3CCN(C)CC3)c(C(F)(F)F)c2)cc1C#Cc1cnc2cccnn12 [Ponatinib]
[12]
  effect on PC cell viability: marginal effects
[13]; % of patients
  venous thromboembolic events: 6%
[13]; patients
  arterial occlusive adverse events: cardiac vascular events: 21%
  arterial occlusive adverse events: cerebrovascular: 9%
  arterial occlusive adverse events: peripheral vascular: 12%
  common adverse event: abdominal pain: 48%
  common adverse event: arterial ischemia: 42%
  common adverse event: arthralgia: 32%
  common adverse event: back pain: 21%
  common adverse event: constipation: 41%
  common adverse event: diarrhea: 20%
  common adverse event: dry skin: 42%
  common adverse event: fatigue: 47%
  common adverse event: headache: 43%
  common adverse event: hypertension: 69%
  common adverse event: myalgia: 24%
  common adverse event: nausea: 28%
  common adverse event: pain in extremity: 23%
  common adverse event: peripheral neuropathy: 24%
  common adverse event: pyrexia: 26%
  common adverse event: rash: 63%
[3]; high-dose 30 mg/kg po qd for 10 days then 15 mg/kg, week 4
  reduction of total BLI intensities: 92%
[3]; low-dose 6 mg/kg po qd, week 4
  reduction of total BLI intensities: 74%
[6]; Homo sapiens, read-out: IC50 of colony formation of PC cells
  IC50: < 1 µM
